How the values were obtained:
diTPS-ISO = target: T1, diTPS-ISO (Picea abies, UniProt Q675L5); assay: transient expression in N. benthamiana leaves, product by GC-MS; conditions: endogenous GGPP in leaves, in planta; cyclisation to isopimaradiene
T1 construct: gene TPS-ISO; C-terminal FLAG tag, pEAQ-HT, transiently expressed in Nicotiana benthamiana leaves; own plastid targeting; 92 kDa
T1 sequence (Q675L5 69-867): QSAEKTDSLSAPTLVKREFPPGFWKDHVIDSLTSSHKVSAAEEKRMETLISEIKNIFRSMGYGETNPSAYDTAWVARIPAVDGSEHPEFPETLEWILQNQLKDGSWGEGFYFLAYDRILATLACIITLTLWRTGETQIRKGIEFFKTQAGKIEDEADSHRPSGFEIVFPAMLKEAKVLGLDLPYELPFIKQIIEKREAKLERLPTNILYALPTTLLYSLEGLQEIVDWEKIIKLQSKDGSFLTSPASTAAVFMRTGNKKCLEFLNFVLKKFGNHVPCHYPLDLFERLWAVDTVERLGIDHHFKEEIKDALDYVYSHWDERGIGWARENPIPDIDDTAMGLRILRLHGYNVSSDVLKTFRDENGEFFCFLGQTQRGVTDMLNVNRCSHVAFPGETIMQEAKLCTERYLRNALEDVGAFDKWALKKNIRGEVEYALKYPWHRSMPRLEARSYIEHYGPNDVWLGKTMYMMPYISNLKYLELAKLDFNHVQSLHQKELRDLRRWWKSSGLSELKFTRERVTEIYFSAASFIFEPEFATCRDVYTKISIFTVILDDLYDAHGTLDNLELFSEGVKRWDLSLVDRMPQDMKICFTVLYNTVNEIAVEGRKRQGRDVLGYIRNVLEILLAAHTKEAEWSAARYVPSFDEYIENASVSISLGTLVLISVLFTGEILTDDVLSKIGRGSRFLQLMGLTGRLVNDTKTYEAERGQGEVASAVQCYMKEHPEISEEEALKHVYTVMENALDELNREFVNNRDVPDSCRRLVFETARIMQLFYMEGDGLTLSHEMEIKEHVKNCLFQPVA

ΔTm-CYP720B4 = target: T2, ΔTm-CYP720B4 (Picea sitchensis, UniProt E5FA70); assay: co-expression with diTPS-ISO, DXS and GGPPs in N. benthamiana leaves, GC-FID and LC-MS; conditions: in planta, endogenous redox partner
T2 construct: N-terminal membrane domain (first 37 amino acids) removed, new start Met from primer, FLAG tag, expressed in Nicotiana benthamiana leaves; 51 kDa
T2 sequence (E5FA70 entry or part of it, stated change not applied): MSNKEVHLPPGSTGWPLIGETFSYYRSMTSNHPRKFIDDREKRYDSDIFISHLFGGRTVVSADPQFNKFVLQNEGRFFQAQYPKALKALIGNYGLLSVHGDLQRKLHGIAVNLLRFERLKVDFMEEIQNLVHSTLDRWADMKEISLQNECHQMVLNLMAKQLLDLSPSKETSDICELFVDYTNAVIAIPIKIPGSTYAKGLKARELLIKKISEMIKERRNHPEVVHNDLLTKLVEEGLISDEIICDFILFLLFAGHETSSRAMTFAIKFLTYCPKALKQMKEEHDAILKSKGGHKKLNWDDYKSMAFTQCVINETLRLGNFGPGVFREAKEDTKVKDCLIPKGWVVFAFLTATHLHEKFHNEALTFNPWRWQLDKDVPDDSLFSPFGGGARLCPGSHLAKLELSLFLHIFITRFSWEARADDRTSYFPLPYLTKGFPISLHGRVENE

Barnes-CYP720B4 = target: T3, Barnes-CYP720B4 (Picea sitchensis, UniProt E5FA70, DEL3-9/V13A, form not given); assay: as above; conditions: in planta, endogenous redox partner
T3 construct: Barnes-modified N-terminus (text: residues 3-9 deleted, V13A); 54 kDa
T3 sequence (E5FA70 entry or part of it DEL3-9/V13A, form open): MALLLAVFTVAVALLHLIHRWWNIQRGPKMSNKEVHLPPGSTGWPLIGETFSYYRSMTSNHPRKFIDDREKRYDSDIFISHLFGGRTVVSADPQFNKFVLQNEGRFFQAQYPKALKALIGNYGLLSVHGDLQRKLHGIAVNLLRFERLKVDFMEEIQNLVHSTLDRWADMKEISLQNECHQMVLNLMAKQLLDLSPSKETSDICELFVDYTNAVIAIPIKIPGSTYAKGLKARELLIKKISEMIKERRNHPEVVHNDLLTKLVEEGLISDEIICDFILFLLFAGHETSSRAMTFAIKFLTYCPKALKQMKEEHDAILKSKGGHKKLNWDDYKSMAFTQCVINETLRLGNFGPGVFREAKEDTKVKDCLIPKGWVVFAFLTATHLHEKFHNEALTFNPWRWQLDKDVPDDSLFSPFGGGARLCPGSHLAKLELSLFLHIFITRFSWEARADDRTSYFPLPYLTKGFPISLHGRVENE

CYP720B4 = target: T4, CYP720B4 (Picea sitchensis, UniProt E5FA70); assay: co-expression with diTPS-ISO in N. benthamiana leaves, GC-MS and LC-MS; conditions: in planta, endogenous redox partner
T4 construct: ER; 55 kDa
T4 sequence (E5FA70 entry or part of it): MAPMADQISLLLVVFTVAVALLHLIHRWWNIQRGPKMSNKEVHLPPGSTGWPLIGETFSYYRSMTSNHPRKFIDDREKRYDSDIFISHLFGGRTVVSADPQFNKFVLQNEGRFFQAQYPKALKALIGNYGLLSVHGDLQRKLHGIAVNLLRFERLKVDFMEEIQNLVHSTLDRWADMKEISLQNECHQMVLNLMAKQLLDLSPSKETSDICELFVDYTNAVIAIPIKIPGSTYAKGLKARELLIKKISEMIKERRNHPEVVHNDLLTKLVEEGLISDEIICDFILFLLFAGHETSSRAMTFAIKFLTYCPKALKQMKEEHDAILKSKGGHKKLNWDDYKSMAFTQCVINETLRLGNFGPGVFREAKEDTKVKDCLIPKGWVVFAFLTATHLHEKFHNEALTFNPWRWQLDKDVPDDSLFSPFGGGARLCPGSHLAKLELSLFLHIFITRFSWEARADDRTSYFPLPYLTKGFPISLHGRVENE

Tp-Barnes-CYP720B4 = target: T5, Tp-Barnes-CYP720B4 (Picea sitchensis, UniProt E5FA70, DEL3-9/V13A, form not given); assay: co-expression with diTPS-ISO, DXS and GGPPs in N. benthamiana leaves, GC-FID and LC-MS; conditions: in planta, chloroplast-targeted enzyme
T5 construct: Barnes-modified N-terminus preceded by transit peptide (N-terminal 52 residues of Arabidopsis thaliana ferredoxin FedA, GenBank AY128936), partly processed; FLAG tag; chloroplast-targeted in Nicotiana benthamiana leaves; 60 kDa precursor
T5 sequence (E5FA70 entry or part of it DEL3-9/V13A, form open): as the sequence (E5FA70 entry or part of it DEL3-9/V13A, form open) above

SMILES: C=C[C@@]1(C)CC[C@H]2C(=CC[C@H]3C(C)(C)CCC[C@]23C)C1 [isopimaradiene]
- transient expression in N. benthamiana leaves, product by GC-MS (diTPS-ISO): active as confirmed by the formation of isopimaradiene in the infiltrated leaves
- co-expression with diTPS-ISO, DXS and GGPPs in N. benthamiana leaves, GC-FID and (ΔTm-CYP720B4): CYP720B4 remains active even after complete removal of the transmembrane domain
- co-expression with diTPS-ISO, DXS and GGPPs in N. benthamiana leaves, GC-FID and (Barnes-CYP720B4): Barnes-CYP720B4 activity does not seem to deteriorate after the N-terminal modification
- co-expression with diTPS-ISO in N. benthamiana leaves, GC-MS and LC-MS (CYP720B4): Upon co-expression with CYP720B4, isopimaradiene was depleted and isopimaric acid accumulated
- co-expression with diTPS-ISO, DXS and GGPPs in N. benthamiana leaves, GC-FID and (Tp-Barnes-CYP720B4): In contrast, the Tp-Barnes-CYP720B4 was active

SMILES: CC(C)=CCC/C(C)=C/CC/C(C)=C/CC/C(C)=C/COP(=O)(O)OP(=O)(O)O [GGPP]
- transient expression in N. benthamiana leaves, product by GC-MS (diTPS-ISO): The expressed diTPS-ISO is active as confirmed by the formation of isopimaradiene

SMILES: C=C[C@@]1(C)CC[C@H]2C(=CC[C@@H]3[C@]2(C)CCC[C@@]3(C)C(=O)O)C1 [isopimaric acid]
- co-expression with diTPS-ISO in N. benthamiana leaves, GC-MS and LC-MS (CYP720B4): isopimaradiene was depleted and isopimaric acid accumulated (Fig. 2c, d), indicating efficient conversion
